The source of these data is patent US8748566B2, “Pharmacologically active antiviral peptides and methods of use” (priority 2000, dated 2014).

For assay [1], the system named is HSV-1 KOS. Description: Plaque reduction assay, HSV-1 KOS infection of Vero cell cultures. In kind it is cell-based. How it is done:
The procedures for growing Vero cells and preparing high titer stocks of HSV-1 KOS as described in (Grau et al., Invest. Ophthal. and Vis. Sci. 30: 2474 (1989)) were utilized. Vero cells were maintained in carbonate-buffered DMEM supplemented with 5% calf serum and 5% fetal bovine serum (regular medium). For some studies, cells were switched to serum-free DMEM buffered with 25 mM Hepes (pH 7.4) and allowed to adapt to that medium for 30 min prior to experimental treatments. Vero cells were seeded into wells (0.28 cm^2) of microtiter plates either at 3.5×10^4 cells/well for use 1 day later (8×10^4 cells/well) or at 1×10^4 cells/well for use 3 days later (2×10^5 cells/well).
Confluent Vero cell cultures in microtiter plates were infected for 1 hour at 37° C. in 40 μl of medium. Except where indicated, peptide treatments in 40 μl of medium lasted from 1 hour before through 1 hour after infection. At the end of the adsorption period, the cultures were re-fed with 100 μl of regular medium. Plaque formation was scored 2 days later and the number of plaques scored per well was normalized to the number counted in the absence of peptide. Using an ocular micrometer, plaque size ([…]) was determined by measuring the largest plaque diameter (L) and the diameter at a 90° angle to that (S). The size of each of the first 40 scored plaques was measured except when a plaque included less than 10 rounded cells or touched the side of the well.

The subject of assay [2] is HSV-1 KOS. The experiment in a line: Yield reduction assay (virus production in infected Vero cells). Format: cell-based. To be noted: added one hour prior to infection; EB statement for concentrations exceeding 10 μM (FIG. 3). How it is done:
Three days post-infection, Vero cell cultures in microtiter plates were frozen (−80° C.) and thawed (37° C.) three times. Cells were suspended by repeated pipetting and microtiter plates were spun for 10 min at 700×g in a Beckman model TJ-6 tabletop centrifuge. The virus-containing supernates were serially diluted in regular medium and titered on Vero cells. Plaques were counted after staining the monolayers with crystal violet as taught by Grau et al., Invest. Ophthalmol. Vis. Sci. 30:2474 (1989).
Vero cell cultures as prepared in Example 1 were infected with HSV-1 and assayed for virus production as described in Example 1. The antiviral activity of an antiviral peptide according to the present invention EB (SEQ ID NO:1) was compared to the antiviral activity of the current HSV antiviral nucleoside standard, acyclovir. The two peptides were added to the Vero cells one hour prior to infection with HSV.

As to H-RRKKAAVALLPAVLLALLAP-OH [EB], in assay [1] (EB present before and during adsorption), the “effect on plaque size” value is “no effect on plaque size”. For the same substance, the entries for the “fold lower concentration blocking infections compared to control peptide EBX” value in assay [1] (absence of serum (FIG. 1B)) and in assay [1] (presence of serum (FIG. 1A)) were 100 fold and 10 fold, respectively. Besides, the “effect on plaque formation” value in assay [1] (peptide present during infection of Vero cells with HSV-1 KOS) is listed as “blocking plaque formation”. The “combined mean plaque size” value in assay [1] (transient treatments with 6 and 12 μM EB (up to 1 hour post-infection)) is 68,000±11,000 μm^2. Further, the “antiviral activity, EB compared with acyclovir” value in assay [2] was “greatest antiviral activity”.
